Assay results from patent US20060223831A1, “Bromide and its crystal” (priority 2003, published 2006).

Columns and labels:
[1] = Stability test (40° C., 75% R.H., 3 months); type: physicochemical; conditions: for Storage stability: 3 months at 40° C. under a relative humidity of 75%
Protocol: Samples were stored under shade for 3 months in a constant temperature constant moisture vessel of 40° C. and 75% R.H. The purity of each sample before storage and after storage was measured using HPLC, and change of crystal form was measured by powder X-ray diffraction. In addition, as a comparative example, crystals of the chloride were stored for 3 months under the same conditions, and amount of an impurity a (a compound in which the imidazolium ring was ring-opened) was measured. [table]

[2] = Evaluation of hygroscopic property (storage in humidity-adjusted desiccators); type: physicochemical; conditions: for HPLC purity change / degradation due to storage: 7 days of storage, ca. 0 to 93% R.H.; for Hygroscopic property: conclusion from storage at ca. 0 to 93% R.H.
Protocol: About 0.5 g of each of the α- form Crystals and β- form Crystals of the bromide obtained in Example 2 was put into a weighing bottle of known mass and, after precisely calculating its mass, preserved under the following storage condition at 25° C. to measure changes in the mass.
Storage condition: A desiccator adjusted to a humidity of about 0% R.H. (silica gel), 33% R.H. (saturated MgCl2.6H2O aqueous solution), 51% R.H. (saturated Ca(NO3)2 aqueous solution), 75% R.H. (saturated NaCl aqueous solution), or 93% R.H. (saturated KNO3 aqueous solution).
i) Moisture absorption (dehydrated amount): By taking out each sample after 7 days of the storage, the weight change was precisely measured and recorded to calculate amount of the absorbed moisture.
ii) Appearance verification: Appearance of the powder was verified with the naked eye and using a magnifying lens.
iii) Powder X-ray diffraction measurement: Powder X-ray diffraction patterns of samples before storage and after completion of the storage period were recorded by a powder X-ray diffraction device.
iv) HPLC purity: Detection of degraded products in the samples before storage and after completion of the storage period was carried out using HPLC to measure purity.
(HPLC conditions) Mobile phase: 0.1% trifluoroacetic acid aqueous solution/acetonitrile=9:2, column: TSKgel ODS 80TsQA, 4.6×150 mm, particle diameter 5 μm (mfd. by Tosoh), flow rate: 1 ml/min, column temperature: 40° C., detection: UV 260 nm

[3] = Water absorption/desorption behavior (moisture equilibrium measuring device SGA-X100); type: physicochemical
Protocol: Water absorption/desorption behavior of the bromide (β- form Crystal) and the chloride obtained in Reference Example as a comparative compound was measured using a moisture equilibrium measuring device SGA-X100 (VTI) under conditions of temperature: 25° C., measuring range: relative humidity of from 5 to 95%, and measuring interval: 5%.

tumor = conditions: cf. page 22 of WO 01/60803; cited from earlier work
[4] = cf. page 22 of WO 01/60803; cited from earlier work
[5] = after storage, 3 months, 40° C., 75% R.H., under shade
[6] = 93% R.H. storage, 25° C., 7 days
[7] = other conditions (ca. 0 to 75% R.H.), 25° C., 7 days
[8] = all conditions (ca. 0 to 93% R.H.), 25° C., 7 days

## COCCn1c2c([n+](Cc3cnccn3)c1C)C(=O)c1ccccc1C2=O.[Br-] [α-form Crystal, 1-(2-methoxyethyl)-2-methyl-4,9-dioxo-3-(pyrazin-2-ylmethyl)-4,9-dihydro-1H-naphtho[2,3-d]imidazol-3-ium bromide]
[1]
  Storage stability: degradation due to the storage was not observed
[1]; listed as α- form Crystals
  Storage stability: stable
[1]; [5]
  HPLC purity (%): 99.92%
  Powder X-ray diffraction pattern: β-form
[1]; before storage
  HPLC purity (%): 99.91%
  Powder X-ray diffraction pattern: α-form
[2]; 33% R.H., 25° C., 7 days, listed as α-form Crystals
  Weight change (%): −0.02%
[2]; 33% R.H., 25° C., after 7 days of storage, listed as α-form Crystals
  HPLC purity (%): 99.89%
[2]; 51% R.H., 25° C., 7 days, listed as α-form Crystals
  Weight change (%): −0.04%
[2]; 51% R.H., 25° C., after 7 days of storage, listed as α-form Crystals
  HPLC purity (%): 99.89%
[2]; 75% R.H., 25° C., 7 days, listed as α-form Crystals
  Weight change (%): 0.13%
[2]; 75% R.H., 25° C., after 7 days of storage, listed as α-form Crystals
  HPLC purity (%): 99.88%
[2]; [6]
  Appearance verification: change from reddish yellow to yellow
  Powder X-ray diffraction pattern after storage: transitioned to β- form Crystals
  Weight loss: About 1%
[2]; 93% R.H., 25° C., 7 days, listed as α-form Crystals
  Weight change (%): −0.94%
[2]; 93% R.H., 25° C., after 7 days of storage, listed as α-form Crystals
  HPLC purity (%): 99.89%
[2]; 25° C.
  HPLC purity change / degradation due to storage: the purity was not decreased
  Hygroscopic property: no hygroscopic property
[2]; before storage, listed as α-form Crystals
  HPLC purity (%): 99.93%
[2]; ca. 0% R.H. (silica gel), 25° C., 7 days, listed as α-form Crystals
  Weight change (%): −0.10%
[2]; ca. 0% R.H., 25° C., after 7 days of storage, listed as α-form Crystals
  HPLC purity (%): 99.72%
[2]; [7]
  Appearance verification: No changes were found
  Powder X-ray diffraction pattern after storage: No changes were found

## COCCn1c2c([n+](Cc3cnccn3)c1C)C(=O)c1ccccc1C2=O.[Br-] [β-form Crystal, 1-(2-methoxyethyl)-2-methyl-4,9-dioxo-3-(pyrazin-2-ylmethyl)-4,9-dihydro-1H-naphtho[2,3-d]imidazol-3-ium bromide]
[1]
  Storage stability: very stable physically and chemically
[1]; listed as β- form Crystals
  Storage stability: stable
[1]; [5]
  HPLC purity (%): 99.71%
  Powder X-ray diffraction pattern: β-form
[1]; before storage
  HPLC purity (%): 99.71%
  Powder X-ray diffraction pattern: β-form
[2]; 33% R.H., 25° C., 7 days, listed as β-form Crystals
  Weight change (%): 0.02%
[2]; 33% R.H., 25° C., after 7 days of storage, listed as β-form Crystals
  HPLC purity (%): 99.73%
[2]; 51% R.H., 25° C., 7 days, listed as β-form Crystals
  Weight change (%): 0.04%
[2]; 51% R.H., 25° C., after 7 days of storage, listed as β-form Crystals
  HPLC purity (%): 99.72%
[2]; 75% R.H., 25° C., 7 days, listed as β-form Crystals
  Weight change (%): 0.06%
[2]; 75% R.H., 25° C., after 7 days of storage, listed as β-form Crystals
  HPLC purity (%): 99.71%
[2]; 93% R.H., 25° C., 7 days, listed as β-form Crystals
  Weight change (%): 0.08%
[2]; 93% R.H., 25° C., after 7 days of storage, listed as β-form Crystals
  HPLC purity (%): 99.71%
[2]; 25° C.
  HPLC purity change / degradation due to storage: the purity was not decreased
  Hygroscopic property: no hygroscopic property
[2]; [8]
  Appearance verification: No changes were found
  Powder X-ray diffraction pattern after storage: did not change
[2]; all of the moisture adjustment conditions, 25° C., 7 days
  Weight change: Significant weight change was not found
[2]; before storage, listed as β-form Crystals
  HPLC purity (%): 99.72%
[2]; ca. 0% R.H. (silica gel), 25° C., 7 days, listed as β-form Crystals
  Weight change (%): 0.01%
[2]; ca. 0% R.H., 25° C., after 7 days of storage, listed as β-form Crystals
  HPLC purity (%): 99.73%
[3]; 25° C., humidity range of from 5 to 95%
  Hygroscopic property: not found

## COCCn1c2c([n+](Cc3cnccn3)c1C)C(=O)c1ccccc1C2=O.[Br-] [bromide, 1-(2-methoxyethyl)-2-methyl-4,9-dioxo-3-(pyrazin-2-ylmethyl)-4,9-dihydro-1H-naphtho[2,3-d]imidazol-3-ium bromide]
[2]; 25° C.
  Hygroscopic property: no hygroscopic property

## COCCn1c2c([n+](Cc3cnccn3)c1C)C(=O)c1ccccc1C2=O [chloride, 1-(2-methoxyethyl)-2-methyl-4,9-dioxo-3-(pyrazin-2-ylmethyl)-4,9-dihydro-1H-naphtho[2,3-d]imidazol-3-ium chloride]
[1]
  Storage stability: low
[1]; [5]
  Impurity a (%) (imidazolium ring-opened compound): 2.45%
[1]; before storage
  Impurity a (%) (imidazolium ring-opened compound): 0.64%
[3]; 25° C., 65% R.H. to 80% R.H.
  Weight gain on forming monohydrate: 4.3%
[3]; 25° C., absorption
  Relative humidity causing deliquescence: ≥ 85 % R.H.
[3]; 25° C., at the time of drying, hydration state stable up to 25% R.H.
  Relative humidity below which hydrate returned to anhydride: < 25 % R.H.
[3]; slight heating
  Heating temperature returning hydrate to anhydride: ≥ 25 °C
tumor
  in vivo tumor growth inhibitory activity: good
[4]
  toxicity: low
